Test results from the supplement of paper PMC11451515.

System: P12-Ichikawa
Experiment: cell viability relative to DMSO control; higher = less cytotoxic
Details: 48 h
In short: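 Viability was expressed as a per-plate percentage of DMSO wells, with cell-free wells as background. Leukemia cells (NOMO1 or SEM at 500 cells/well, P12-Ichikawa at 1000 cells/well) were adapted for at least four passages in each medium and seeded in 1536-well plates (5 μl). Library compounds in DMSO were pin-dosed over an 11-point threefold series from 47 μM to 0.79 nM, and CellTiter-Glo One luminescence was read after 48 h at 37°C.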

[1] = HPLM + 10% dialyzed FBS, 0.000781 µM
[2] = HPLM + 10% dialyzed FBS, 0.00234 µM
[3] = HPLM + 10% dialyzed FBS, 0.00702 µM
[4] = HPLM + 10% dialyzed FBS, 0.0211 µM
[5] = HPLM + 10% dialyzed FBS, 0.0632 µM
[6] = HPLM + 10% dialyzed FBS, 0.19 µM
[7] = HPLM + 10% dialyzed FBS, 0.569 µM
[8] = HPLM + 10% dialyzed FBS, 1.71 µM
[9] = HPLM + 10% dialyzed FBS, 5.12 µM
[10] = HPLM + 10% dialyzed FBS, 15.4 µM
[11] = HPLM + 10% dialyzed FBS, 46.1 µM
[12] = RPMI 5 mM glucose + 10% FBS, 0.000781 µM
[13] = RPMI 5 mM glucose + 10% FBS, 0.00234 µM
[14] = RPMI 5 mM glucose + 10% FBS, 0.00702 µM
[15] = RPMI 5 mM glucose + 10% FBS, 0.0211 µM
[16] = RPMI 5 mM glucose + 10% FBS, 0.0632 µM
[17] = RPMI 5 mM glucose + 10% FBS, 0.19 µM
[18] = RPMI 5 mM glucose + 10% FBS, 0.569 µM
[19] = RPMI 5 mM glucose + 10% FBS, 1.71 µM
[20] = RPMI 5 mM glucose + 10% FBS, 5.12 µM
[21] = RPMI 5 mM glucose + 10% FBS, 15.4 µM
[22] = RPMI 5 mM glucose + 10% FBS, 46.1 µM
[23] = RPMI 5 mM glucose + 10% dialyzed FBS, 0.000781 µM
[24] = RPMI 5 mM glucose + 10% dialyzed FBS, 0.00234 µM
[25] = RPMI 5 mM glucose + 10% dialyzed FBS, 0.00702 µM
[26] = RPMI 5 mM glucose + 10% dialyzed FBS, 0.0211 µM
[27] = RPMI 5 mM glucose + 10% dialyzed FBS, 0.0632 µM
[28] = RPMI 5 mM glucose + 10% dialyzed FBS, 0.19 µM
[29] = RPMI 5 mM glucose + 10% dialyzed FBS, 0.569 µM
[30] = RPMI 5 mM glucose + 10% dialyzed FBS, 1.71 µM
[31] = RPMI 5 mM glucose + 10% dialyzed FBS, 5.12 µM
[32] = RPMI 5 mM glucose + 10% dialyzed FBS, 15.4 µM
[33] = RPMI 5 mM glucose + 10% dialyzed FBS, 46.1 µM

Row | Compound | cell viability [1] | cell viability [2] | cell viability [3] | cell viability [4] | cell viability [5] | cell viability [6] | cell viability [7] | cell viability [8] | cell viability [9] | cell viability [10] | cell viability [11] | cell viability [12] | cell viability [13] | cell viability [14] | cell viability [15] | cell viability [16] | cell viability [17] | cell viability [18] | cell viability [19] | cell viability [20] | cell viability [21] | cell viability [22] | cell viability [23] | cell viability [24] | cell viability [25] | cell viability [26] | cell viability [27] | cell viability [28] | cell viability [29] | cell viability [30] | cell viability [31] | cell viability [32] | cell viability [33]
1 | C[C@@H]1CC[C@@]2(CC[C@]3(C)\C(=C/C[C@@H]4[C@@]5(C)CC[C@H](O)C(C)(C)[C@@H]5CC[C@@]34C)[C@@H]2[C@H]1C)C(O)=O | 112% | 117% | 113% | 109% | 120% | 117% | 109% | 116% | 115% | 125% | 113% | 117% | 112% | 104% | 113% | 118% | 116% | 116% | 116% | 116% | 124% | 115% | 99.7% | 106% | 106% | 112% | 123% | 114% | 115% | 110% | 119% | 109% | 113%
2 | CCCN[C@H]1CCc2nc(N)sc2C1 | 92.8% | 104% | 98% | 98.4% | 101% | 107% | 101% | 110% | 103% | 104% | 107% | 94.3% | 90.5% | 107% | 104% | 107% | 110% | 107% | 111% | 114% | 114% | 120% | 85.6% | 95.1% | 90.4% | 93.6% | 96% | 101% | 96.1% | 93.6% | 94.9% | 96.9% | 106%
3 | C/C1=C2/[N]3[Co+]456([OH])<-[N]7=C1[C@@H](CCC(N)=O)C(C)(C)/C7=C/C1=[N]->4C(=C(/C)C4=[N]->5[C@@](C)([C@H]3[C@H](CC(N)=O)[C@@]2(C)CCC(=O)NC[C@@H](C)OP(=O)([O-])O[C@H]2[C@@H](O)[C@@H](n3c[n]->6c5cc(C)c(C)cc53)O[C@@H]2CO)[C@@](C)(CC(N)=O)[C@@H]4CCC(N)=O)/[C@@](C)(CC(N)=O)[C@@H]1CCC(N)=O | 103% | 97.2% | 95.9% | 99.2% | 99.9% | 97.8% | 92.8% | 93.2% | 76.8% | 77.7% | 71.3% | 97.5% | 88.7% | 97.9% | 98.1% | 95.7% | 88.3% | 98.8% | 93.4% | 85.8% | 85.4% | 69.8% | 82.3% | 85.2% | 86.5% | 77.3% | 83% | 79.9% | 75.7% | 76.7% | 73.9% | 76.9% | 61%
4 | Clc2cccc(Cl)c2\N=C1/NCCN1 | 109% | 115% | 71% | 123% | 116% | 123% | 120% | 120% | 116% | 122% | 121% | 109% | 120% | 73.8% | 121% | 127% | 130% | 137% | 126% | 135% | 126% | 123% | 95.8% | 115% | 80.2% | 113% | 115% | 121% | 120% | 120% | 112% | 124% | 124%
5 | CC[C@H]1OC(=O)[C@H](C)[C@@H](O[C@H]2C[C@@](C)(OC)[C@@H](O)[C@H](C)O2)[C@H](C)[C@@H](O[C@@H]2O[C@H](C)C[C@H](N(C)C)[C@H]2O)[C@](C)(OC)C[C@@H](C)C(=O)[C@H](C)[C@@H](O)[C@]1(C)O | 109% | 102% | 98% | 98.7% | 103% | 96.7% | 95.8% | 93.2% | 91.6% | 93.5% | 82.1% | 94.3% | 103% | 98.6% | 88.4% | 96.3% | 98.5% | 90.8% | 89.8% | 86% | 84.2% | 89.6% | 93.2% | 98.5% | 96.3% | 88% | 94.8% | 94.3% | 90.5% | 85.6% | 90.8% | 94.2% | 81.2%
6 | CCC(CCCC)COC(=O)C(\C#N)=C(\c1ccccc1)c2ccccc2 (centres undefined) | 95.6% | 100% | 102% | 99.3% | 106% | 108% | 112% | 107% | 113% | 107% | 99.3% | 89.8% | 95.7% | 95.2% | 96.3% | 110% | 104% | 106% | 99.2% | 95.2% | 102% | 94.5% | 87.1% | 84.2% | 97.6% | 98.5% | 98.8% | 97.2% | 101% | 99.5% | 97.3% | 99.1% | 95.9%
7 | CCCCc1ccc2[nH]c(NC(=O)OC)nc2c1 | 104% | 106% | 105% | 101% | 85.9% | 22.9% | 18.4% | 27.1% | 13.8% | 16.2% | 11% | 99.7% | 112% | 101% | 106% | 92.6% | 17.6% | 16.8% | 26.7% | 24.1% | 22.2% | 16.5% | 92.4% | 98.4% | 103% | 102% | 97.5% | 31% | 25.7% | 37.7% | 27.9% | 29.3% | 23.1%
8 | c1cc(-c2cnn3cc(-c4ccc(OCCN5CCCCC5)cc4)cnc23)ccn1 | 90.3% | 91.1% | 93.8% | 91.8% | 97% | 93.7% | 91.7% | 91.4% | 89.6% | 85.6% | 2.9% | 83.8% | 81.9% | 96.7% | 86.9% | 87.5% | 79% | 76% | 84.2% | 85.9% | 83.2% | 50.5% | 89.2% | 86.8% | 84.1% | 88.5% | 86.8% | 85.4% | 78.8% | 83.7% | 78.2% | 88% | 85.7%
9 | OC1=CC=C(C=C1)C/2=C/C3=C(OC2)C=C(O)C=C3 | 109% | 91.7% | 111% | 117% | 109% | 116% | 104% | 80.2% | 19.8% | 2.76% | 1.12% | 108% | 121% | 123% | 110% | 126% | 111% | 107% | 88.2% | 24.3% | 1.45% | -0.00081% | 102% | 112% | 111% | 113% | 111% | 106% | 102% | 74.9% | 16.2% | 2.96% | 0.54%
10 | C=CC(=O)Nc1cccc(Sc2nc(Nc3ccc(N4CCN(C)CC4)cc3)ncc2Cl)c1 | 105% | 108% | 109% | 112% | 107% | 121% | 122% | 118% | 115% | 118% | 22.2% | 95.7% | 107% | 113% | 121% | 116% | 122% | 120% | 115% | 124% | 117% | 19.2% | 104% | 115% | 110% | 114% | 118% | 120% | 123% | 124% | 123% | 126% | 26.3%
11 | CNC[C@H](O)[C@@H](O)[C@H](O)[C@H](O)CO | 114% | 124% | 122% | 130% | 123% | 125% | 120% | 134% | 128% | 119% | 119% | – | – | – | – | – | – | – | – | – | – | – | 109% | 126% | 124% | 125% | 125% | 126% | 122% | 131% | 123% | 119% | 126%
12 | CN(C)c1nc(Cc2ccc(NC(=O)c3ccc(C(F)(F)F)cc3)cc2)nc(N(C)C)c1CC(=O)O | 106% | 100% | 107% | 104% | 105% | 103% | 99.5% | 102% | 103% | 98.2% | 90.3% | 106% | 109% | 99.5% | 105% | 109% | 103% | 103% | 108% | 100% | 103% | 98.5% | 95.7% | 96.7% | 99.6% | 105% | 94.7% | 96.9% | 99.3% | 96.8% | 95.1% | 93.8% | 85.2%
13 | O=C(/C=C/c1ccc(/C=C/C(=O)Nc2ccc(C3=NCCN3)cc2)cc1)Nc1ccc(C2=NCCN2)cc1 | 98.7% | 102% | 111% | 115% | 117% | 108% | 117% | 115% | 119% | 115% | 108% | 101% | 104% | 111% | 111% | 109% | 119% | 109% | 106% | 112% | 107% | 110% | 91.3% | 109% | 107% | 96.7% | 104% | 115% | 105% | 112% | 109% | 112% | 100%
14 | OC[C@H]1O[C@H](C[C@@H]1O)N2/C=C(C(=O)NC2=O)/C(F)(F)F | 120% | 116% | 119% | 110% | 117% | 98% | 75.9% | 52.9% | 17.4% | 12.5% | 6.49% | 126% | 113% | 118% | 114% | 123% | 121% | 112% | 107% | 38.6% | 15.7% | 8.41% | 107% | 114% | 114% | 113% | 105% | 107% | 89.6% | 93.3% | 23.1% | 16.8% | 11.1%
15 | O=C(O)c1cc(O)c2c(c1)C(=O)c1cccc(O)c1C2=O | 113% | 117% | 123% | 117% | 107% | 117% | 112% | 110% | 107% | 106% | 99.9% | 110% | 120% | 113% | 119% | 119% | 113% | 109% | 120% | 98% | 113% | 102% | 118% | 119% | 113% | 114% | 112% | 112% | 110% | 108% | 99.1% | 108% | 99.7%
